Target: T1, recombinant human renin (Homo sapiens, UniProt P00797)
T1 sequence (P00797 67-406): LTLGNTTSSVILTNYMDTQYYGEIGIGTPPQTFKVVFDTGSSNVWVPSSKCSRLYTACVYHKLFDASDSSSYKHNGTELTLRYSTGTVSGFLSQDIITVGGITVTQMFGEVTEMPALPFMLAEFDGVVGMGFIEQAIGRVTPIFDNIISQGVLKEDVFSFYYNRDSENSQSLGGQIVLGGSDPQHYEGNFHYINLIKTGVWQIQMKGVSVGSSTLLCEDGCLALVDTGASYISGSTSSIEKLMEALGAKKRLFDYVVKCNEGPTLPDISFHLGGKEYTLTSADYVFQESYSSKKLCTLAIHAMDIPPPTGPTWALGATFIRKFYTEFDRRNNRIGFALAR
Test: Primary renin inhibition assay: IC50 in buffer, 384 well MTP (AngI measured by EIA)
Assay type: biochemical
Conditions: human tetradecapeptide (1-14) substrate, incubated at 37° C. for 3 h, AngI quantified by EIA
Protocol: 1. Enzyme Immuno Assay (EIA) to Estimate AngI Accumulation and Renin Inhibition
1.1 Preparation of AngI-BSA Conjugate
1.3 mg (1 μmol) of AngI [1-10 (Bachem, H-1680)] and 17 mg (0.26 μmol) of BSA (Fluka, 05475) were dissolved in 4 mL of 0.1M phosphate buffer, pH 7.4, after which 2 mL of a 1:100 dilution of glutaraldehyde in H2O (Sigma G-5882) was added dropwise. The mixture was incubated overnight at 4° C., then dialyzed against 2 liters of 0.9% NaCl, twice for 4 h at rt, followed by dialysis against 2 liters of PBS 1× overnight at rt. The solution was then filtered with a Syringe filter, 0.45 μm (Nalgene, Cat. No. 194-2545). The conjugate can be stored in polypropylene tubes in 0.05% sodium azide at 4° C. for at least 12 months.
1.2 Preparation of BSA-AngI Coated MTP
Microtiter plates (MPT384, MaxiSorp™, Nunc) were incubated overnight at 4° C. with 80 μl of AngI (1-10)/BSA conjugate, diluted 1:100'000 in PBS 1× in a teflon beaker (exact dilution dependent on batch of conjugate), emptied, filled with 90 μl of blocking solution [0.5% BSA (Sigma A-2153) in PBS 1×, 0.02% NaN3], and incubated for at least 2 h at rt, or overnight at 4° C. 96 well MTP (MaxiSorp™, Nunc) were coated with 200 μl conjugate and blocked with 250 μl blocking solution as above, except that the blocking solution contained 3% BSA. The plates can be stored in blocking solution at 4° C. for 1 month.
1.3 AngI-EIA in 384 Well MTP
The AngI (1-10)/BSA coated MTP were washed 3 times with wash buffer (PBS 1×, 0.01% Tween 20) and filled with 75 μl of primary antibody solution (anti-AngI antiserum, pre-diluted 1:10 in horse serum), diluted to a final concentration of 1:100'000 in assay buffer (PBS 1×, 1 mM EDTA, 0.1% BSA, pH 7.4). 5 μl of the renin reaction (or standards in assay buffer) (see below) were added to the primary antibody solution and the plates were incubated overnight at 4° C. After the incubation the plates were washed 3 times with wash buffer and incubated with secondary antibody [anti-rabbit IgG, linked to horseradish peroxidase (Amersham Bioscience, NA 934V), diluted 1:2'000 in wash buffer] for 2 h at rt. The plates were washed 3 times with wash buffer and then incubated for 1 h at rt with substrate solution [1.89 mM ABTS (2,2′-azino-di-(3-ethyl-benzthiazolinsulfonate)] (Roche Diagnostics, 102 946) and 2.36 mM H2O2 [30%, (Fluka, 95300] in substrate buffer (0.1M sodium acetate, 0.05M sodium dihydrogen phosphate, pH 4.2). The OD of the plate was read at 405 nm in a microplate reader (FLUOStar Optima from BMG). The production of AngI during the renin reaction was quantified by comparing the OD of the sample with the OD of a standard curve of AngI(1-10), measured in parallel.
2. Primary Renin Inhibition Assay: IC50 in Buffer, 384 Well MTP
The renin assay was adapted from an assay described before (Fischli W. et al., Hypertension, 1991, 18:22-31) and consists of two steps: in the first step, recombinant human renin is incubated with its substrate (commercial human tetradecapeptide renin substrate) to create the product Angiotensin I (AngI). In the second step, the accumulated AngI is measured by an immunological assay (enzyme immuno assay, EIA). The detailed description of this assay is found below. The EIA is very sensitive and well suited for renin activity measurements in buffer or in plasma. Due to the low concentration of renin used in this assay (2 fmol per assay tube or 10 pM) it is possible to measure inhibitor affinities in this primary assay down to low pM concentration.
Recombinant human renin (3 pg/μl) in assay buffer (PBS 1×, 1 mM EDTA, 0.1% BSA, pH 7.4), human tetradecapeptide (1-14) substrate (Bachem, M-1120) [5 μM in 10 mM HCl], hydroxyquinoline sulfate (Fluka, 55100) [30 mM in H2O] and assay buffer were premixed at 4° C. at a ratio of 100:30:10:145. 47.5 μl per well of this premix was transferred into polypropylene plates (MTP384, Nunc). […]

IC50 | Compound
80 pM | CNC(=O)CCc1ccc(Cl)c(CN(C(=O)[C@H]2CNCC[C@@H]2c2ccc(OCc3cc(-c4c(F)ccc(F)c4Cl)no3)cc2)C2CC2)c1 [Example 102, (3R,4S)-4-{4-[3-(2-Chloro-3,6-difluoro-phenyl)isoxazol-5-ylmethoxy]-phenyl}-piperidine-3-carboxylic Acid [2-chloro-5-(2-methylcarbamoyl-ethyl)benzyl]-cyclopropyl-amide]
390 pM | CNC(=O)OCCc1ccc(Cl)c(CN(C(=O)[C@H]2CNCC[C@@H]2c2ccc(N3CC[C@@H](Oc4c(Cl)cc(C)cc4Cl)C3)nc2)C2CC2)c1 [Example 110, Methyl-carbamic Acid 2-{4-chloro-3-[(cyclopropyl-{(3′R,4′S)-6-[(R)-3-(2,6-dichloro-4-methyl-phenoxy)-pyrrolidin-1-yl]-1′,2′,3′,4′,5′,6′-hexahydro-[3,4′]bipyridinyl-3′-carbonyl}-amino)-methyl]-phenyl}-ethyl Ester]

— patent US7968720B2, “Secondary amines as renin inhibitors” (Actelion Pharmaceuticals Ltd., priority 2006, dated 2011)
